Data on one compound can be found in US10711000B2 (Fronthera U.S. Pharmaceuticals LLC, priority 2018, dated 2020).

Structures are written as SMILES. Like-named read-outs stand apart in the source and are kept apart here.

Data set [1] has as its target T1, Autotaxin (Homo sapiens, UniProt Q13822).
T1 construct: from tissue; host or cells: pooled human plasma
The data set can be described thus: LPA formation in pooled human plasma (ex vivo autotaxin inhibition). Type of data set: biochemical. The following applies: 2 hours incubation. In a few lines:
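Pooled human plasma incubated 2 h with various compound concentrations; LPA 18:2 and 20:4 quantified by LC/MS/MS (negative-ion MRM, LPA17:0 internal standard) after butanol extraction. Inhibition of LPA formation relative to untreated plasma; IC50 by non-linear regression.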

Data set [2] is described as follows: Pharmacokinetics after a single oral dose in SD rats. The class given is in vivo. Particulars: Sprague-Dawley, rat, plasma, single oral dose in 0.5% methylcellulose. The text has this: (§1) The pharmacokinetics and pharmacodynamics of test compounds after a single oral dose were investigated in SD rats, Beagle dog and Cynomolgus monkey. SD Rats (200-250 g) were purchased from Beijing Vital River Laboratory Animal Technology Co., Ltd. Male Beagle Dog, 6-9 kg, were purchased from Beijing Mashall. Male Cynomolgus monkeys, 3-5 kg, were purchased from Suzhou Xishan Zhongke Drugs Research and Development Co., Ltd. Following arrival, the animals were acclimated for 7 days in individual cages maintained at ambient temperature, 34 to 68% relative humidity, and 12-h light/dark cycles. Just prior to dose administration the rats were fasted overnight with free access to water. Animals were given 10 mL/kg of formulated compound in 0.5% methylcellulose (MC) by oral gavage, and the animals were fed four hours after dosing. The animals were manually restrained at the designated time points (pre-dose, 0.5, 1, 3, 6, 9, 12, and 24 h post-dose) to collect blood. Approximately 120 μL of blood was collected via orbital sinus into K2EDTA tubes. The blood samples were centrifuged at 5000 rpm for 10 min at 4° C. to obtain plasma samples.
To determine the compound concentration in the plasma samples, a 10× calibration standard of compound were prepared by serial dilution in DMSO: 20000, 10000, 5000, 2000, 1000, 500, 200, 100, 50, 20, and 10 ng/mL. 3 μL of calibration standard solution was added into 27.0 μL of blank plasma in 1.5-mL microcentrifuge tubes to generate 1× calibration standards. The 30.0 μL of standards or study plasma was mixed with 200 μL of acetonitrile (containing 5 ng/mL verapamil for internal control) in a 1.5-mL microcentrifuge tube. After vertexing for 1 minute and centrifuging at 10000 rpm for 10 min, 180 μL of supernatant was transferred into a 96-well plate and the compound concentration in the plasma was quantitated using LC/MS/MS together with standards. Briefly, 1 μL of the solutions were injected for LC-MS/MS analysis using an Agilent Zorbax C18 column (50×2.1 mm, 3.5 μm) with mobile phase A [5 mM NH4Ac (0.1% FA)] and phase B [Methanol (0.1% FA)]. Mass spectrometer parameters optimization for compound was performed by infusing standard diluted at 1 μg/mL in water/methanol (1/1, v/v) directly in the ionization source at a flow of 10 μL/min. Quantitative data were acquired in multiple reaction monitoring (MRM) positive APCI mode.

Data set [3] deals with T2, Autotaxin (Rattus norvegicus, UniProt Q64610).
T2 construct: from tissue; host or cells: SD rats in vivo; plasma sampled after a single oral dose
The data set can be described thus: Pharmacodynamics: LPA 18:2 inhibition in plasma of SD rats after oral dose. Particulars: single oral dose, LPA18:2 inhibition vs plasma concentration of compound, read-out: In vivo rat IC50 (LPA 18:2) (converted).
Text: as §1
Autotaxin is a secreted phosphodiesterase that converts lysophosphatidylcholine (LPC) into lysophosphatidic acid (LPA), and LPA 18:2 formation was used to evaluate the efficacy of autotaxin inhibitors. Therefore, the LPA 18:2 formation in response to drug administration was analyzed in each time point to assess the pharmacodynamics of test compounds. To determine the LPA18:2 concentration in study plasma, a 10× calibration standard of LPA 18:2 were prepared by serial dilution in butyl alcohol: 20000, 10000, 5000, 2000, 1000, 500, 200, 100, 50, 20, and 10 ng/mL. 3 μL of calibration standard solution was added into 27.0 μL of blank plasma in 1.5-mL microcentrifuge tubes to generate 1× calibration standards. The 30.0 μL of standards or study plasma was added into 1.5-mL microcentrifuge tubes. 200 μL of butyl alcohol (containing 25.0 ng/mL LPA17:0 for internal control) was added into each 1.5-mL microcentrifuge tube containing study plasma or calibration standards. After vortexing for 1 minute and centrifuging at 10000 rpm for 10 min, 180 μL of supernatant was transferred into a 96-well plate and the LPA18:2 concentration in the plasma was quantitated using LC/MS/MS together with standards. Briefly, 8 μL of the solutions were injected for LC-MS/MS analysis using an ACQUITY UPLC BEH C18 column (2.1×50 mm, 1.7 μm) with mobile phase A [20 mM NH4OAC in water (0.1% FA)] and phase B [5 mM NH4OAC in water/0.2% FA in ACN=5:95]. Mass spectrometer parameters optimization for LPA18:2 were performed by infusing standard diluted at 1 μg/mL in butyl Alcohol directly in the ionization source, at a flow of 10 μL/min. Deprotonated molecular ion at m/z 433.2 ([M−H]−) for LPA18:2, and abundant product ion at m/z 152.8 for LPA18:2 were obtained. Quantitative data were acquired in multiple reaction monitoring (MRM) negative electrospray ionization mode
The percentage of LPA18:2 inhibition was plotted against the corresponding concentration of compound and the IC50 was calculated through non-linear regression fitting.

As usually defined, the IC50 is the midpoint of a concentration-inhibition curve. The AUC is concentration integrated over time. Higher therefore signals high exposure. Broadly, the Cmax is the highest concentration seen after dosing. Take `CCc1nn2cc(F)c(N3CC4(CN(C(=O)C5(O)CCOCC5)C4)C3)cc2c1N(C)c1nc(-c2ccc(F)cc2)c(C#N)s1` [Example 112, 2-[[2-ethyl-6-fluoro-5-[2-(4-hydroxytetrahydropyran-4-carbonyl)-2,6-diazaspiro[3.3]heptan-6-yl]pyrazolo[1,5-a]pyridin-3-yl]-methyl-amino]-4-(4-fluorophenyl)thiazole-5-carbonitrile]: the IC50 at Autotaxin [1] (LPA 18:2 by LC/MS/MS, read-out: LPA formation (18:2) (IC50)) was no more than 100 nM; at Autotaxin [1] (LPA 20:4 by LC/MS/MS, read-out: LPA formation (20:4) (IC50)), no more than 100 nM; at Autotaxin [3], 97.5 nM. In data set [2], this compound had an AUC of 4750 ± 1430 ng·h/mL. In data set [2], the peak level (Cmax) was 460 ± 178 ng/mL. In addition, in data set [2] (read-out: T½ (converted)), the half-life is 3.77 ± 0.34 h.
